# Assays:
# [1] = Stability assessment of pirfenidone formulations at 25°C/60% RH and 40°C/75% RH; format: physicochemical; conditions: for Measured Pirfenidone / mOsmol/kg / pH: time zero
# CYP1A2 = molecular target: T1, CYP1A2 (Homo sapiens, UniProt P05177); conditions: hepatic microsomes; cited from earlier work
# T1 construct: In vitro metabolism studies with hepatic microsomes; from tissue; host or cells: hepatic microsomes
# 2C19 = molecular target: T2, 2C19 (Homo sapiens, UniProt P33261); conditions: hepatic microsomes; cited from earlier work
# T2 construct: In vitro metabolism studies with hepatic microsomes; from tissue; host or cells: hepatic microsomes
# 2D6 = molecular target: T3, 2D6 (Homo sapiens, UniProt P10635); conditions: hepatic microsomes; cited from earlier work
# T3 construct: In vitro metabolism studies with hepatic microsomes; from tissue; host or cells: hepatic microsomes
# [2] = 25° C./60% RH, target 1 mg/mL, 5 mM phosphate buffer pH 6.5 plus 1% (v/v) EtOH, 2% (v/v) PG
# [3] = 25° C./60% RH, target 1 mg/mL, 5 mM phosphate buffer pH 6.5 plus 8% (v/v) EtOH, 16% (v/v) PG
# [4] = 25° C./60% RH, target 15 mg/mL, 5 mM phosphate buffer pH 6.5 plus 1% (v/v) EtOH, 2% (v/v) PG
# [5] = 25° C./60% RH, target 23 mg/mL, 5 mM phosphate buffer pH 6.5 plus 4% (v/v) EtOH, 8% (v/v) PG
# [6] = 25° C./60% RH, target 30 mg/mL, 5 mM phosphate buffer pH 6.5 plus 6% (v/v) EtOH, 12% (v/v) PG
# [7] = 25° C./60% RH, target 38 mg/mL, 5 mM phosphate buffer pH 6.5 plus 8% (v/v) EtOH, 16% (v/v) PG
# [8] = 40° C./75% RH, target 1 mg/mL, 5 mM phosphate buffer pH 6.5 plus 1% (v/v) EtOH, 2% (v/v) PG
# [9] = 40° C./75% RH, target 1 mg/mL, 5 mM phosphate buffer pH 6.5 plus 8% (v/v) EtOH, 16% (v/v) PG
# [10] = 40° C./75% RH, target 15 mg/mL, 5 mM phosphate buffer pH 6.5 plus 1% (v/v) EtOH, 2% (v/v) PG
# [11] = 40° C./75% RH, target 23 mg/mL, 5 mM phosphate buffer pH 6.5 plus 4% (v/v) EtOH, 8% (v/v) PG
# [12] = 40° C./75% RH, target 30 mg/mL, 5 mM phosphate buffer pH 6.5 plus 6% (v/v) EtOH, 12% (v/v) PG
# [13] = 40° C./75% RH, target 38 mg/mL, 5 mM phosphate buffer pH 6.5 plus 8% (v/v) EtOH, 16% (v/v) PG
# [14] = target 1 mg/mL, 5 mM phosphate buffer pH 6.5 plus 1% (v/v) EtOH, 2% (v/v) PG
# [15] = target 1 mg/mL, 5 mM phosphate buffer pH 6.5 plus 8% (v/v) EtOH, 16% (v/v) PG
# [16] = target 15 mg/mL, 5 mM phosphate buffer pH 6.5 plus 1% (v/v) EtOH, 2% (v/v) PG
# [17] = target 23 mg/mL, 5 mM phosphate buffer pH 6.5 plus 4% (v/v) EtOH, 8% (v/v) PG
# [18] = target 30 mg/mL, 5 mM phosphate buffer pH 6.5 plus 6% (v/v) EtOH, 12% (v/v) PG
# [19] = target 38 mg/mL, 5 mM phosphate buffer pH 6.5 plus 8% (v/v) EtOH, 16% (v/v) PG
# T2 sequence (P33261 whole entry): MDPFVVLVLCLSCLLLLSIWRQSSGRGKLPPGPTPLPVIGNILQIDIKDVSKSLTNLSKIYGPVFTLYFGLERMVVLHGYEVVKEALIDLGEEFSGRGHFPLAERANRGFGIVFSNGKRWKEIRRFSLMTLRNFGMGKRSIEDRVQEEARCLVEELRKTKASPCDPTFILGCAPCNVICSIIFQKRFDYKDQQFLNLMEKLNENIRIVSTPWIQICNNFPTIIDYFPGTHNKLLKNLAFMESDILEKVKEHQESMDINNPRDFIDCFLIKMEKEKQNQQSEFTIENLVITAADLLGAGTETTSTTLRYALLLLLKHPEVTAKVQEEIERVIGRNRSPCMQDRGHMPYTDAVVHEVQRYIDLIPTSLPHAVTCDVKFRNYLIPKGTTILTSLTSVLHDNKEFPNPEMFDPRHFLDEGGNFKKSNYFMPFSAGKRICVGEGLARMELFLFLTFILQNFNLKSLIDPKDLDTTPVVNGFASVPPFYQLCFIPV
# T3 sequence (P10635 whole entry): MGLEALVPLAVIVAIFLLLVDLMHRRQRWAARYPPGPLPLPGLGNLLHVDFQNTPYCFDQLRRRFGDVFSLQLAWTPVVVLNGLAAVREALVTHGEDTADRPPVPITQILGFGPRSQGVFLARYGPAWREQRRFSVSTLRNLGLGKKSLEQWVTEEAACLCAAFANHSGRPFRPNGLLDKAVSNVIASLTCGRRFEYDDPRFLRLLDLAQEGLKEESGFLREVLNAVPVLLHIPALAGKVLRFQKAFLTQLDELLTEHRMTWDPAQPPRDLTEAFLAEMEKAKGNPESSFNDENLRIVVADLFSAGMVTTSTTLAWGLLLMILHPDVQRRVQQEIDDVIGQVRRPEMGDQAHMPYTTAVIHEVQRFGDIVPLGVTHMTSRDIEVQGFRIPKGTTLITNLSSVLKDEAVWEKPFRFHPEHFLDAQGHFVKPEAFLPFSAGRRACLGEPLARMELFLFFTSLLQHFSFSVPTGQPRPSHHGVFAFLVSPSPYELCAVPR
# T1 sequence (P05177 whole entry): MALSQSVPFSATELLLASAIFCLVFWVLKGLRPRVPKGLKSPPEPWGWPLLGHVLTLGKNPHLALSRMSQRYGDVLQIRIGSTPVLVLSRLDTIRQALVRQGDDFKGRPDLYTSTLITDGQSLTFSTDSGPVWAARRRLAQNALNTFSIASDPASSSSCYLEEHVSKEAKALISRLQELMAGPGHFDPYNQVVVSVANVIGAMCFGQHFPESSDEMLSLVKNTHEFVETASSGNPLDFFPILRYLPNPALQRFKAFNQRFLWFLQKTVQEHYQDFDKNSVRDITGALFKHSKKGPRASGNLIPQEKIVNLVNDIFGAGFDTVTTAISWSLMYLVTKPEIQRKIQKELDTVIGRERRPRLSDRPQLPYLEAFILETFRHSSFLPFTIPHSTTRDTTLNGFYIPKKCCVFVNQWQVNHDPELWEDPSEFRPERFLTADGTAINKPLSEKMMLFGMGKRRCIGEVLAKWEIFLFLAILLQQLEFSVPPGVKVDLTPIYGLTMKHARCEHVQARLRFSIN
smiles,measurement,setting,value
"Cc1ccc(=O)n(-c2ccccc2)c1 [pirfenidone, 5-methyl-1-phenyl-2-(1H)-pyridone]",Pirfenidone at Time = 3 month,[1]; [2],1.0 mg/mL
same,Pirfenidone at Time = 6 month,[1]; [2],1.0 mg/mL
same,Pirfenidone at Time = 0,[1]; [3],1.0 mg/mL
same,Pirfenidone at Time = 1 month,[1]; [3],1.0 mg/mL
same,Pirfenidone at Time = 3 month,[1]; [3],1.0 mg/mL
same,Pirfenidone at Time = 6 month,[1]; [3],1.0 mg/mL
same,Pirfenidone at Time = 0,[1]; [4],16.1 mg/mL
same,Pirfenidone at Time = 1 month,[1]; [4],15.1 mg/mL
same,Pirfenidone at Time = 3 month,[1]; [4],14.9 mg/mL
same,Pirfenidone at Time = 6 month,[1]; [4],15.4 mg/mL
same,Pirfenidone at Time = 0,[1]; [5],24.1 mg/mL
same,Pirfenidone at Time = 1 month,[1]; [5],22.1 mg/mL
same,Pirfenidone at Time = 3 month,[1]; [5],22.3 mg/mL
same,Pirfenidone at Time = 6 month,[1]; [5],23.2 mg/mL
same,Pirfenidone at Time = 0,[1]; [6],30.3 mg/mL
same,Pirfenidone at Time = 1 month,[1]; [6],30.1 mg/mL
same,Pirfenidone at Time = 3 month,[1]; [6],29.6 mg/mL
same,Pirfenidone at Time = 6 month,[1]; [6],31.0 mg/mL
same,Pirfenidone at Time = 0,[1]; [7],38.9 mg/mL
same,Pirfenidone at Time = 1 month,[1]; [7],38.3 mg/mL
same,Pirfenidone at Time = 3 month,[1]; [7],38.0 mg/mL
same,Pirfenidone at Time = 6 month,[1]; [7],39.2 mg/mL
same,Pirfenidone at Time = 0,[1]; [8],1.0 mg/mL
same,Pirfenidone at Time = 1 month,[1]; [8],1.0 mg/mL
same,Pirfenidone at Time = 3 month,[1]; [8],1.0 mg/mL
same,Pirfenidone at Time = 6 month,[1]; [8],1.0 mg/mL
same,Pirfenidone at Time = 0,[1]; [9],1.0 mg/mL
same,Pirfenidone at Time = 1 month,[1]; [9],1.0 mg/mL
same,Pirfenidone at Time = 3 month,[1]; [9],1.0 mg/mL
same,Pirfenidone at Time = 6 month,[1]; [9],1.0 mg/mL
same,Pirfenidone at Time = 0,[1]; [10],16.1 mg/mL
same,Pirfenidone at Time = 1 month,[1]; [10],15.1 mg/mL
same,Pirfenidone at Time = 3 month,[1]; [10],14.8 mg/mL
same,Pirfenidone at Time = 6 month,[1]; [10],15.5 mg/mL
same,Pirfenidone at Time = 0,[1]; [11],24.1 mg/mL
same,Pirfenidone at Time = 1 month,[1]; [11],22.4 mg/mL
same,Pirfenidone at Time = 3 month,[1]; [11],22.1 mg/mL
same,Pirfenidone at Time = 6 month,[1]; [11],23.3 mg/mL
same,Pirfenidone at Time = 0,[1]; [12],30.3 mg/mL
same,Pirfenidone at Time = 1 month,[1]; [12],30.3 mg/mL
same,Pirfenidone at Time = 3 month,[1]; [12],30.0 mg/mL
same,Pirfenidone at Time = 6 month,[1]; [12],31.1 mg/mL
same,Pirfenidone at Time = 0,[1]; [13],38.9 mg/mL
same,Pirfenidone at Time = 1 month,[1]; [13],38.4 mg/mL
same,Pirfenidone at Time = 3 month,[1]; [13],38.0 mg/mL
same,Pirfenidone at Time = 6 month,[1]; [13],37.9 mg/mL
same,Measured Pirfenidone,[1]; [14],1.0 mg/mL
same,mOsmol/kg,[1]; [14],452 mOsmol/kg
same,pH,[1]; [14],6.69
same,Measured Pirfenidone,[1]; [15],1.0 mg/mL
same,mOsmol/kg,[1]; [15],3590 mOsmol/kg
same,pH,[1]; [15],6.98
same,Measured Pirfenidone,[1]; [16],16.1 mg/mL
same,mOsmol/kg,[1]; [16],512 mOsmol/kg
same,pH,[1]; [16],6.65
same,Measured Pirfenidone,[1]; [17],24.1 mg/mL
same,pH,[1]; [17],6.78
same,Measured Pirfenidone,[1]; [18],30.3 mg/mL
same,mOsmol/kg,[1]; [18],2863 mOsmol/kg
same,pH,[1]; [18],6.90
same,Measured Pirfenidone,[1]; [19],38.9 mg/mL
same,mOsmol/kg,[1]; [19],3750 mOsmol/kg
same,pH,[1]; [19],7.04
same,pirfenidone metabolised via CYP1A2,CYP1A2,approximately 48%
same,contribution to pirfenidone metabolism,2C19,less than 13%
same,contribution to pirfenidone metabolism,2D6,less than 13%

# Source: patent publication US10028966B2 (Avalyn Pharma Inc., priority 2014, dated 2018)
